The text below walks through data of patent US7951408B2, “Methods of feeding animals” (ADM Alliance Nutrition Inc., priority 2001, dated 2011).

For test [1], the system named is rumen protein digestion. Description: In vitro fermentation of protein meals with metal ions: RUP after 16 h. The settings on record: for Mean RUP: 150 mg/L metal ions, 16 h of fermentation.
Another test relates to Holstein cows. The settings on record: complete feed 1020 ppm of zinc, six weeks. An excerpt:
The source of RUP was a combination of heated soybean meal, corn gluten meal, and distiller dried grains.

A further test concerns lactating dairy cows. The settings on record: for Dry matter intake / Intestinal Amino Acid flows, Lysine / Intestinal Amino Acid flows, Methionine / Intestinal Amino Acid flows, Total Essential Amino Acids / Ruminal digestion, Neutral Detergent Fiber / Ruminal digestion, Organic Matter / Ruminal digestion, Starch: additional 250 ppm zinc. The protocol:
The concentration of RUP in high and low RUP diets were manipulated by changing the proportions of low RUP feeds (soybean meal, canola) and high RUP feeds (heated soybean meal, corn gluten meal).
Using the data presented in Table 8, the amount of metal ions fed to the cows can also be expressed in grams of metal ions per kilogram of the cow's body weight per day. For instance, Table 8A presents the data of Table 8 in a different format. The average body weight is determined by the fact that an average mature dairy cow weighs about 640 kg. The grams of metal ions fed to the cow per kg of the cow's body weight per day is determined by: multiplying the DMI (kg/day) times the metal ion concentration (grams of metal ions per kg of dry feed), resulting in the amount of metal ions in grams fed to the cow per day; the amount of metal ions in grams fed to the cow per day is divided by the average body weight of the cow, thus resulting in the grams of metal ions fed to the cow per kg of the cow's body weight per day.

Another test has as its system rumen starch digestion. Description: In vitro starch digestion and pH in artificial rumen system (Ankom Daisy). The protocol: In vitro digestions of a complete dairy pellet, and a dairy total mixed ration TMR) were performed using an artificial rumen system (Ankom Daisy system) to evaluate the effects of metal ions on rumen starch digestion.
In test [2] the test system is rumen protein digestion. Nature of the test: In vitro digestion in artificial rumen system (Ankom Daisy): rumen protein digestion. The protocol:
Metals were incorporated at 150 or 300 mg/L. […] Previous efforts focused on the digestion of high protein feeds such as oilseed meals.

The subject of a further test is crossbred wether lambs. Description: Performance of lambs receiving zinc or zinc, manganese, iron combinations. The class given is in vivo. The settings on record: 16% CP, Low RUP diet plus metal sulfates (about 500 ppm total metal). How it is done: Individually fed crossbred wether lambs were fed diets containing 14% CP (as a negative control) or 16% CP with low or high RUP content to examine the feeding of divalent metals singly or in combination. Bypass protein content was increased by feeding higher amounts of heat-treated soybean meal. In the 16%, Low RUP diet, the following metal additions were tested: 500 ppm Zn; 250 ppm Zn:250 ppm Mn; and 170 ppm Zn: 170 ppm Mn: 170 ppm Fe. All metals were added in the sulfate form, and iron was in the form of ferrous sulfate. Feeding the 16% CP: High RUP diet or adding metals to the 16% CP: Low RUP tended to decrease gain and feed efficiency with only small effects on feed intake relative to that obtained with the 16%, low RUP diet (Table 6).
For instance, Table 6A presents the data of Table 6 in a different format. The average body weight is determined by dividing the sum of the initial weight and the 42 day weight of the lamb by 2.

Several values for one entry are separate records, joined by “and”; a condition that tells them apart may be missing. Equal entries are not always repeated. Where two headings read alike, the source gives them in different places. Marks after values point to notes of the source that are not given here.

For `[Cl][Fe]([Cl])[Cl]` [Ferric Iron], the “Mean RUP” value is 51.6^ab with rumen protein digestion [1] (Canola); 58.4^b with rumen protein digestion [1] (Cottonseed); 81.1^a in the test on rumen protein digestion [1] (Heated Canola); 81.7^ab with rumen protein digestion [1] (Heated SBM); 29.1^a in the test on rumen protein digestion [1] (SBM).
In the case of `O=S(=O)([O-])[O-].[Zn+2]` [Zinc, zinc sulfate], in the test with Holstein cows, the Milk was found to be 33.2 kg/day, the “Milk Fat” value was determined as 3.25% and the “Milk Protein” value is listed as 3.20%. Also, in the test on rumen protein digestion [1] (Canola), the “Mean RUP” value is recorded as 57.3^b. In addition, in the test on rumen protein digestion [1] (Cottonseed), the “Mean RUP” value is given as 64.4^c. Moreover, in the test on rumen protein digestion [1] (Heated Canola), the “Mean RUP” value was 85.2^b. Further, the “Mean RUP” value in the test with rumen protein digestion [1] (Heated SBM) is 85.2^b. In the test on rumen protein digestion [1] (SBM), the “Mean RUP” value is recorded as 56.4^c. Also, in the test on lactating dairy cows (High RUP diet), the Dry matter intake amounted to 22.2 kg/day; the “Intestinal Amino Acid flows, Lysine” value turned out to be 200.0 g/day; the “Intestinal Amino Acid flows, Methionine” value is 58.2 g/day; the “Intestinal Amino Acid flows, Total Essential Amino Acids” value was determined as 1601 g/day. In the test with lactating dairy cows (High RUP diet), the “Ruminal digestion, Neutral Detergent Fiber” value is recorded as 24.8 % of intake; the “Ruminal digestion, Organic Matter” value is on record as 45.5 % of intake; the “Ruminal digestion, Starch” value was 52.8 % of intake. Also, in the test with lactating dairy cows (Low RUP diet), the Dry matter intake came to 21.8 kg/day; the “Intestinal Amino Acid flows, Lysine” value stood at 183.3 g/day; the “Intestinal Amino Acid flows, Methionine” value was 49.0 g/day; the “Intestinal Amino Acid flows, Total Essential Amino Acids” value came to 1331 g/day. In the test with lactating dairy cows (Low RUP diet), the “Ruminal digestion, Neutral Detergent Fiber” value was 22.0 % of intake; the “Ruminal digestion, Organic Matter” value was 47.3 % of intake; the “Ruminal digestion, Starch” value is reported as 53.6 % of intake. The “digestion of starch in the rumen” value in the test on lactating dairy cows (both the low and high RUP diets, in words) is “reduced”. In the test on rumen starch digestion, the Ammonia is 30.8 mg/dL and 29.7 mg/dL; the “Ammonia, Main Effects” value is -1.1 mg/dL; the “Digestion Rates, Rumen Undegraded Starch (16 hours), Main Effects” value is recorded as “.038** % per hour”; the “Digestion Rates, pH Decline, Main Effects” value is reported as “−.027 % per hour”. Moreover, in the test with rumen starch digestion, the “Rumen Undegraded Starch (16 hours)” value was 13.2% and 12.0%; the “Rumen Undegraded Starch (16 hours), Main Effects” value turned out to be 4.0%; the “calculated kinetic rate for starch digestion” value is listed as “decreased”; the “pH at 16 hours, Main Effects” value is “.05*”. In the test with rumen starch digestion, the “pH at 48 hours, Main Effects” value is reported as “.05” and the “rumen undegraded starch measured at 16 h” value is “increased”. For the same compound, the “Average rumen undegraded protein for all samples” value (shortened to “Average rumen undegraded protein”) with rumen protein digestion [2] was 45 % of protein and 48 % of protein. Besides, in the test with crossbred wether lambs, the “ADG (average daily gain)” value is given as 451^a,b g/day, the “G/F × 100 (ratio of weight gain to feed intake)” value is reported as 27.3^b and the “Total Gain” value is reported as 18.81^a kg. Also, in the test on crossbred wether lambs (listed as Zn), the 42 day weight is 43.8^a kg and 43.8 kg; the “DMI (dry matter intake)” value was 1.66^a kg/day and 1.66 kg/day.
For ferrous sulfate [Ferrous Iron], the “decreasing rumen protein digestion, effectiveness” value in the test on rumen protein digestion [1] (150 mg/L, in words) is given as “substantially more effective than the ferric ion”. Besides, the “Mean RUP” value in the test on rumen protein digestion [1] (Canola) is given as 57.7^b; in the test with rumen protein digestion [1] (Cottonseed), 62.1^bc; with rumen protein digestion [1] (Heated Canola), 83.5^b; with rumen protein digestion [1] (Heated SBM), 83.9^b; in the test on rumen protein digestion [1] (SBM), 42.9^b.
As to manganous sulfate [Manganese], in the test with rumen starch digestion (150 mg/L metal), the Ammonia is listed as 32.1 mg/dL; the “Digestion Rates, Rumen Undegraded Starch (16 hours)” value was “−.137 % per hour”; the “Digestion Rates, pH Decline” value is given as “.135 % per hour”; the “Rumen Undegraded Starch (16 hours)” value is recorded as 5.1%. Also, in the test with rumen starch digestion (150 mg/L metal), the “pH at 16 hours” value was “−.28” and the “pH at 48 hours” value is recorded as “−.30”. In the test with rumen starch digestion (300 mg/L metal), the Ammonia is on record as 34.2 mg/dL; the “Digestion Rates, Rumen Undegraded Starch (16 hours)” value is on record as “−.132 % per hour”; the “Digestion Rates, pH Decline” value was “.247 % per hour”; the “Rumen Undegraded Starch (16 hours)” value stood at 8.0%. In the test on rumen starch digestion (300 mg/L metal), the “pH at 16 hours” value is reported as “−.34” and the “pH at 48 hours” value is “−.27”. Also, in the test with rumen starch digestion (main effect of metal), the “Ammonia, Main Effects” value turned out to be 1.8 mg/dL; the “Digestion Rates, Rumen Undegraded Starch (16 hours), Main Effects” value was determined as 0.0 % per hour; the “Digestion Rates, pH Decline, Main Effects” value is recorded as “−.043 % per hour”; the “Rumen Undegraded Starch (16 hours), Main Effects” value is given as −2.0%. In addition, in the test with rumen starch digestion (main effect of metal), the “pH at 16 hours, Main Effects” value was “.05*” and the “pH at 48 hours, Main Effects” value was “.03”. In the test on rumen protein digestion [2] (Alfalfa Haylage, 150 mg/L), this compound displayed a rumen undegraded protein of 26.1. In the test on rumen protein digestion [2] (Alfalfa Haylage, 300 mg/L), this compound registered a rumen undegraded protein of 24.8. For the same compound, the rumen undegraded protein with rumen protein digestion [2] (Dairy Concentrate Feeds, 150 mg/L) is given as 50.9. Moreover, the rumen undegraded protein with rumen protein digestion [2] (Dairy Concentrate Feeds, 300 mg/L) is given as 52.3. Moreover, the “Average rumen undegraded protein” value in the test with rumen protein digestion [2] (metal inclusion 150 mg/L) was 43.2 % of protein. Also, in the test with rumen protein digestion [2] (metal inclusion 300 mg/L), the “Average rumen undegraded protein” value was 42.5 % of protein.
